In ChEMBL document CHEMBL1152541, “Staurosporine tethered peptide ligands that target cAMP-dependent protein kinase (PKA): optimization and selectivity profiling” (Bioorg Med Chem, 2009):
*1 amine or outer side, *2 acyl side, *3 side chain or, on linkers, in order; H or OH if unused. Where a SMILES comes first, the peptide text is derived from it. Bridges are numbered along the chain shown (N, C = ends). The star is where a group is joined. Staurosporine = CO[C@@H]1[C@H](N(C)*)C[C@H]2O[C@]1(C)n1c3ccccc3c3c4c(c5c6ccccc6n2c5c31)C(=O)NC4; Suc = O=C(CCC(=O)[*:2])[*:1]; βAla = NCCC(=O)O

Tests used:
[1] = Ratio of inhibition of PKA in presence of DTT to inhibition of PKA in absence of DTT
[2] = Noncompetitive inhibition of PKA assessed as [gamma-32P]ATP labeling of kemptide by liquid scintillation counting
[3] = Ratio of compound IC50 to bivalent ligand 1 IC50 for PKA
[4] = Competitive inhibition of PKA assessed as [gamma-32P]ATP labeling of kemptide by liquid scintillation counting
[5] = Mixed inhibition of PKA assessed as [gamma-32P]ATP labeling of kemptide by liquid scintillation counting
[6] = Uncompetitive inhibition of PKA assessed as [gamma-32P]ATP labeling of kemptide by liquid scintillation counting

Ratio [1]	Ki [2] [µM]	Km [2] [µM]	SMILES	further results
2.7			CO[C@@H]1[C@H](N(C)C(=O)CCC(=O)NCCC(=O)NCCC(=O)NCCC(=O)NCCC(=O)NCCC(=O)NCCC(=O)NCCC(=O)NCCC(=O)NCCC(=O)N[C@H]2CSSC[C@@H](C(=O)NCC(N)=O)NC(=O)CNC(=O)[C@H](Cc3ccccc3)NC(=O)[C@H](C(C)C)NC(=O)[C@H](CCCNC(=N)N)NC(=O)[C@H](Cc3ccccc3)NC(=O)[C@H](C(C)C)NC2=O)C[C@H]2O[C@]1(C)n1c3ccccc3c3c4c(c5c6ccccc6n2c5c31)C(=O)NC4 ({Staurosporine-Suc-βAla-βAla-βAla-βAla-βAla-βAla-βAla-βAla-βAla}-CVFRVFGCG-NH2; disulfide 1-8)	
2.7			CO[C@@H]1[C@H](N(C)C(=O)CCC(=O)NCCC(=O)NCCC(=O)NCCC(=O)NCCC(=O)NCCC(=O)N[C@H]2CSSC[C@@H](C(=O)NCC(N)=O)NC(=O)CNC(=O)[C@H](Cc3ccccc3)NC(=O)[C@H](C(C)C)NC(=O)[C@H](CCCNC(=N)N)NC(=O)[C@H](Cc3ccccc3)NC(=O)[C@H](C(C)C)NC2=O)C[C@H]2O[C@]1(C)n1c3ccccc3c3c4c(c5c6ccccc6n2c5c31)C(=O)NC4 ({Staurosporine-Suc-βAla-βAla-βAla-βAla-βAla}-CVFRVFGCG-NH2; disulfide 1-8)	
	85.6	13.3	CC(C)[C@@H]1NC(=O)[C@H](CCCNC(=N)N)NC(=O)[C@H](Cc2ccccc2)NC(=O)[C@H](C(C)C)NC(=O)[C@@H](N)CSSC[C@@H](C(=O)NCC(N)=O)NC(=O)CNC(=O)[C@H](Cc2ccccc2)NC1=O (HELM PEPTIDE1{C.V.F.R.V.F.G.C.G.[am]}$PEPTIDE1,PEPTIDE1,1:R3-8:R3$$$V2.0)	Ratio IC50 [3]: > 21000
	0.002	12	CO[C@@H]1[C@H](N(C)C(=O)CCC(=O)NCCCOCCCNC(=O)COCC(=O)N[C@H]2CSSC[C@@H](C(=O)NCC(N)=O)NC(=O)CNC(=O)[C@H](Cc3ccccc3)NC(=O)[C@H](C(C)C)NC(=O)[C@H](CCCNC(=N)N)NC(=O)[C@H](Cc3ccccc3)NC(=O)[C@H](C(C)C)NC2=O)C[C@H]2O[C@]1(C)n1c3ccccc3c3c4c(c5c6ccccc6n2c5c31)C(=O)NC4 (HELM PEPTIDE1{[CO[C@@H]1[C@H](N(C)C(=O)CCC(=O)NCCCOCCCNC(=O)COCC(=O)[*:2])C[C@H]2O[C@]1(C)n1c3ccccc3c3c4c(c5c6ccccc6n2c5c31)C(=O)NC4].C.V.F.R.V.F.G.C.G.[am]}$PEPTIDE1,PEPTIDE1,2:R3-9:R3$$$V2.0)	Ki [4]: 10.1 µM; Km [5]: 11.2 µM; Km [6]: 13.9 µM
2.7			CO[C@@H]1[C@H](N(C)C(=O)CCC(=O)NCCC(=O)NCCC(=O)NCCC(=O)N[C@H]2CSSC[C@@H](C(=O)NCC(N)=O)NC(=O)CNC(=O)[C@H](Cc3ccccc3)NC(=O)[C@H](C(C)C)NC(=O)[C@H](CCCNC(=N)N)NC(=O)[C@H](Cc3ccccc3)NC(=O)[C@H](C(C)C)NC2=O)C[C@H]2O[C@]1(C)n1c3ccccc3c3c4c(c5c6ccccc6n2c5c31)C(=O)NC4 ({Staurosporine-Suc-βAla-βAla-βAla}-CVFRVFGCG-NH2; disulfide 1-8)	
	86	13.3	CC(C)C[C@H](NC(=O)[C@H](CO)NC(=O)[C@H](C)NC(=O)[C@H](CCCNC(=N)N)NC(=O)[C@H](CCCNC(=N)N)NC(=O)[C@@H](N)CC(C)C)C(=O)NCC(=O)O [KEMPTIDE]	
